One experiment relates to MDA-MB-435s cells (human melanoma cells). Kind of experiment: MDA-MB-435s cell proliferation inhibitory assay (CellTiter-Glo). Format: cell-based. Conditions: Homo sapiens, MDA-MB-435S, 72 h, read-out: Proliferation inhibition IC50. As for the experimental part: (§1) • 1). […] Resuspend an appropriate amount of cell suspension to 3000 cells/100 μL according to the count, mixed well and then put the corresponding number of cells into a 96-well plate by pipette. • 3). Each hole of the edge was sealed with 100 μL DPBS and put into an incubator for culture. • 4). Day 1 drug addition: Prepare the storage solution of the compound to be tested 1 hour in advance. 24 h after plating, the culture medium was gradiently diluted to a concentration twice the final concentration of each group. Take out the plated cells from the incubator and add 100 μL of the corresponding 2-fold concentration medium to each well by pipette. • 5). Day 1 detected: Take out an appropriate amount of CTG 1 h in advance and the plate was allowed to equilibrate at room temperature for 30 min. 100 μL of CTG was added to each well and shaken for 5 mins, and then standed in the dark for 5 mins, the luminescence value was detected by ELISA. • 6). Day 4 detection: Take an appropriate amount of CTG 1 h in advance and rewarm it at room temperature in the dark. At the same time, take out the plate to be tested from the incubator and leave it to equilibrate at room temperature for 30 minutes; 72 h after adding the drug, 100 μL of culture medium was sucked out with pipette carefully from each cell well, and 100 μL of CTG was added. The mixture was shaken for 5 min, and after equilibration in the dark for 5 min, the luminescence value was detected with ELISA. • 7). Analyze data and write detailed experimental records.
Collect data and convert it into survival rate: Inhibition rate (%)=(100−(OD value of compound−OD value on the first day)/(OD value of control well-OD value on the first day))×100%
(§2) Input the compound into graphpad prism to obtain the corresponding IC50 value.
With `CC[C@@]1(O)C(=O)OCc2c1cc1n(c2=O)Cc2c-1nc1cc(F)c(C)cc1c2[C@H](C)NC(=O)[C@H](C)O` [Example 14], the IC50 was determined as 3.8 nM.

In the case of `CC[C@@]1(O)C(=O)OCc2c1cc1n(c2=O)Cc2c-1nc1cc(F)c(C)cc1c2[C@H](C)NC(=O)[C@@H](C)O` [Example 15], the IC50 worked out at 4.2 nM.

As for `CC[C@@]1(O)C(=O)OCc2c1cc1n(c2=O)Cc2c-1nc1cc(F)c(C)cc1c2[C@H](C)NC(=O)C1(O)CC1` [Example 16], the IC50 is 8.2 nM.

On to `CC[C@@]1(O)C(=O)OCc2c1cc1n(c2=O)Cc2c-1nc1cc(F)c(C)cc1c2[C@H](C)NC(=O)[C@@H](O)C1CC1` [Example 17], for which the IC50 came out at 6.3 nM.

Regarding `CC[C@@]1(O)C(=O)OCc2c1cc1n(c2=O)Cc2c-1nc1cc(F)c(C)cc1c2[C@H](C)NC(=O)[C@H](O)C(F)(F)F` [Example 18], the IC50 amounted to 10.3 nM.

For `CC[C@@]1(O)C(=O)OCc2c1cc1n(c2=O)Cc2c-1nc1cc(F)c(C)cc1c2[C@H](C)NC(=O)[C@@H](O)C(F)(F)F` [Example 19], the IC50 turned out to be 15.3 nM.

For `[2H]C([2H])(O)C(=O)N[C@@H](C)c1c2c(nc3cc(F)c(C)cc13)-c1cc3c(c(=O)n1C2)COC(=O)[C@]3(O)CC` [Example 20], the IC50 is 2.7 nM.

Turning to `CC[C@@]1(O)C(=O)OCc2c1cc1n(c2=O)Cc2c-1nc1cc(F)c(C)cc1c2[C@H](C)NC` [Example 21], the IC50 worked out at 1.2 nM.

For the compound `CC[C@@]1(O)C(=O)OCc2c1cc1n(c2=O)Cc2c-1nc1cc(F)c(C)cc1c2[C@H](C)N(C)C` [Example 22], the IC50 is 5.6 nM.

With `[2H]C([2H])([2H])c1cc2c([C@H](C)N)c3c(nc2cc1F)-c1cc2c(c(=O)n1C3)COC(=O)[C@]2(O)CC` [Example 23], the IC50 was found to be 0.76 nM.

For the compound `CC[C@@]1(O)C(=O)OCc2c1cc1n(c2=O)Cc2c-1nc1cc(F)c(C)cc1c2[C@H](C)[N+](C)(C)C` [Example 24], the IC50 is 6.6 nM.

As for `CC[C@@]1(O)C(=O)OCc2c1cc1n(c2=O)Cc2c-1nc1cc(F)c(C)cc1c2[C@H](C)NCCO` [Example 25], the IC50 was 10.2 nM.

Consider `CC[C@@]1(O)C(=O)OCc2c1cc1n(c2=O)Cc2c-1nc1cc(F)c(C)cc1c2[C@H](C)NCCN(C)C` [Example 25a], for which the IC50 was determined as 6.3 nM.

On to `CC[C@@]1(O)C(=O)OCc2c1cc1n(c2=O)Cc2c-1nc1cc(F)c(C)cc1c2[C@@H](C)NCCN(C)C` [Example 25b], for which the IC50 is 9.6 nM.

Still in this experiment, the particulars now being: Homo sapiens; MDA-MB-435s cells, 72 h after adding the drug, Table 3; read-out: Proliferation inhibition IC50.
For `CC[C@@]1(O)C(=O)OCc2c1cc1n(c2=O)Cc2c-1nc1cc(F)c(C)cc1c2[C@H](C)NC(=O)CO` [Example 13], the IC50 came to 2.8 nM.

The subject of a further experiment is MCF-7 cells (human breast cancer cells). The experiment can be described thus: MCF-7 cell proliferation inhibitory assay (CellTiter-Glo). Format: cell-based. Conditions: Homo sapiens, MCF7, 72 h, read-out: Proliferation inhibition IC50. As for the experimental part: • 1). […] Resuspend an appropriate amount of cell suspension to 4000 cells/100 μL according to the count, mixed well and then put the corresponding number of cells into a 96-well plate by pipette. • 3). Each hole of the edge was sealed with 100 μL DPBS and put into an incubator for culture. • 4). Day 1 drug addition: Prepare the storage solution of the compound to be tested 1 hour in advance. 24 h after plating, the culture medium was gradiently diluted to a concentration twice the final concentration of each group. Take out the plated cells from the incubator and add 100 μL of the corresponding 2-fold concentration medium to each well by pipette.
Day 1 detected: Take out the plate to be tested and an appropriate amount of CTG in advance and rewarm it at room temperature in the dark. 50 μL of CTG was added to each well at 24 h. Shake with the oscillator for 5 minutes, and after balancing in the dark for 5 minutes, detect the luminescence value with a microplate reader; The mixture was shaken for 5 min, and after equilibration in the dark for 5 min, the luminescence value was detected with ELISA. • 6). Day 4 detection: Take an appropriate amount of CTG 1 h in advance and rewarm it at room temperature in the dark. At the same time, take out the plate to be tested from the incubator and leave it to equilibrate at room temperature for 30 minutes; 72 h after adding the drug, 100 μL of culture medium was sucked out with pipette carefully from each cell well, and 50 μL of CTG was added. The mixture was shaken for 5 min, and after equilibration in the dark for 5 min, the luminescence value was detected with ELISA analyzer. • 7). Data analysis and processed.
Collect data and convert it into survival rate: Inhibition rate (%)=(100−(OD value of compound-OD value on the first day)/(OD value of control well-OD value on the first day))×100%
as §2
(In general: In ATP-based viability assays light output follows the ATP content of the culture.)
`CC[C@@]1(O)C(=O)OCc2c1cc1n(c2=O)Cc2c-1nc1cc(F)c(C)cc1c2[C@H](C)NC(=O)CO` [Example 13]: the IC50 worked out at 8.3 nM.

On to `CC[C@@]1(O)C(=O)OCc2c1cc1n(c2=O)Cc2c-1nc1cc(F)c(C)cc1c2[C@H](C)NC(=O)[C@H](C)O` [Example 14], for which the IC50 worked out at 8.3 nM.

On to `CC[C@@]1(O)C(=O)OCc2c1cc1n(c2=O)Cc2c-1nc1cc(F)c(C)cc1c2[C@H](C)NC(=O)[C@@H](C)O` [Example 15], for which the IC50 is 10.6 nM.

`CC[C@@]1(O)C(=O)OCc2c1cc1n(c2=O)Cc2c-1nc1cc(F)c(C)cc1c2[C@H](C)NC(=O)C1(O)CC1` [Example 16]: the IC50 turned out to be 12.3 nM.

In the case of `CC[C@@]1(O)C(=O)OCc2c1cc1n(c2=O)Cc2c-1nc1cc(F)c(C)cc1c2[C@H](C)NC(=O)[C@@H](O)C1CC1` [Example 17], the IC50 stood at 7.8 nM.

Turning to `CC[C@@]1(O)C(=O)OCc2c1cc1n(c2=O)Cc2c-1nc1cc(F)c(C)cc1c2[C@H](C)NC(=O)[C@H](O)C(F)(F)F` [Example 18], the IC50 stood at 11.3 nM.

In the case of `CC[C@@]1(O)C(=O)OCc2c1cc1n(c2=O)Cc2c-1nc1cc(F)c(C)cc1c2[C@H](C)NC(=O)[C@@H](O)C(F)(F)F` [Example 19], the IC50 came to 15.2 nM.

For the compound `[2H]C([2H])(O)C(=O)N[C@@H](C)c1c2c(nc3cc(F)c(C)cc13)-c1cc3c(c(=O)n1C2)COC(=O)[C@]3(O)CC` [Example 20], the IC50 worked out at 7.8 nM.

As for `CC[C@@]1(O)C(=O)OCc2c1cc1n(c2=O)Cc2c-1nc1cc(F)c(C)cc1c2[C@H](C)NC` [Example 21], the IC50 was determined as 4.2 nM.

For the compound `CC[C@@]1(O)C(=O)OCc2c1cc1n(c2=O)Cc2c-1nc1cc(F)c(C)cc1c2[C@H](C)N(C)C` [Example 22], the IC50 came out at 9.3 nM.

Turning to `[2H]C([2H])([2H])c1cc2c([C@H](C)N)c3c(nc2cc1F)-c1cc2c(c(=O)n1C3)COC(=O)[C@]2(O)CC` [Example 23], the IC50 was found to be 2.5 nM.

As to `CC[C@@]1(O)C(=O)OCc2c1cc1n(c2=O)Cc2c-1nc1cc(F)c(C)cc1c2[C@H](C)[N+](C)(C)C` [Example 24], the IC50 came to 10.2 nM.

In the case of `CC[C@@]1(O)C(=O)OCc2c1cc1n(c2=O)Cc2c-1nc1cc(F)c(C)cc1c2[C@H](C)NCCO` [Example 25], the IC50 came out at 30.2 nM.

With `CC[C@@]1(O)C(=O)OCc2c1cc1n(c2=O)Cc2c-1nc1cc(F)c(C)cc1c2[C@H](C)NCCN(C)C` [Example 25a], the IC50 was 25.6 nM.

Take `CC[C@@]1(O)C(=O)OCc2c1cc1n(c2=O)Cc2c-1nc1cc(F)c(C)cc1c2[C@@H](C)NCCN(C)C` [Example 25b]: the IC50 turned out to be 35.1 nM.

A further experiment deals with MDA-MB-231 cells (human breast cancer cells). The experiment can be described thus: MDA-MB-231 cell proliferation inhibitory assay (CellTiter-Glo). Conditions: Homo sapiens, MDA-MB-231, 72 h, read-out: Proliferation inhibition IC50. Format: cell-based. How it is done:
as §1, §2
Take `CC[C@@]1(O)C(=O)OCc2c1cc1n(c2=O)Cc2c-1nc1cc(F)c(C)cc1c2[C@H](C)NC(=O)[C@H](C)O` [Example 14]: the IC50 was 88.6 nM.

`CC[C@@]1(O)C(=O)OCc2c1cc1n(c2=O)Cc2c-1nc1cc(F)c(C)cc1c2[C@H](C)NC(=O)[C@@H](C)O` [Example 15]: the IC50 is 141 nM.

Regarding `CC[C@@]1(O)C(=O)OCc2c1cc1n(c2=O)Cc2c-1nc1cc(F)c(C)cc1c2[C@H](C)NC(=O)C1(O)CC1` [Example 16], the IC50 was 100 nM.

On to `CC[C@@]1(O)C(=O)OCc2c1cc1n(c2=O)Cc2c-1nc1cc(F)c(C)cc1c2[C@H](C)NC(=O)[C@@H](O)C1CC1` [Example 17], for which the IC50 was found to be 96.7 nM.

For the compound `CC[C@@]1(O)C(=O)OCc2c1cc1n(c2=O)Cc2c-1nc1cc(F)c(C)cc1c2[C@H](C)NC(=O)[C@H](O)C(F)(F)F` [Example 18], the IC50 worked out at 150 nM.

Consider `CC[C@@]1(O)C(=O)OCc2c1cc1n(c2=O)Cc2c-1nc1cc(F)c(C)cc1c2[C@H](C)NC(=O)[C@@H](O)C(F)(F)F` [Example 19], for which the IC50 is 261 nM.

As to `[2H]C([2H])(O)C(=O)N[C@@H](C)c1c2c(nc3cc(F)c(C)cc13)-c1cc3c(c(=O)n1C2)COC(=O)[C@]3(O)CC` [Example 20], the IC50 stood at 120 nM.

In the case of `CC[C@@]1(O)C(=O)OCc2c1cc1n(c2=O)Cc2c-1nc1cc(F)c(C)cc1c2[C@H](C)NC` [Example 21], the IC50 worked out at 20.2 nM.

`CC[C@@]1(O)C(=O)OCc2c1cc1n(c2=O)Cc2c-1nc1cc(F)c(C)cc1c2[C@H](C)N(C)C` [Example 22]: the IC50 worked out at 60.8 nM.

On to `[2H]C([2H])([2H])c1cc2c([C@H](C)N)c3c(nc2cc1F)-c1cc2c(c(=O)n1C3)COC(=O)[C@]2(O)CC` [Example 23], for which the IC50 amounted to 7.7 nM.

Turning to `CC[C@@]1(O)C(=O)OCc2c1cc1n(c2=O)Cc2c-1nc1cc(F)c(C)cc1c2[C@H](C)[N+](C)(C)C` [Example 24], the IC50 worked out at 80.1 nM.

`CC[C@@]1(O)C(=O)OCc2c1cc1n(c2=O)Cc2c-1nc1cc(F)c(C)cc1c2[C@H](C)NCCO` [Example 25]: the IC50 turned out to be 261 nM.

Regarding `CC[C@@]1(O)C(=O)OCc2c1cc1n(c2=O)Cc2c-1nc1cc(F)c(C)cc1c2[C@H](C)NCCN(C)C` [Example 25a], the IC50 came to 40.2 nM.

As for `CC[C@@]1(O)C(=O)OCc2c1cc1n(c2=O)Cc2c-1nc1cc(F)c(C)cc1c2[C@@H](C)NCCN(C)C` [Example 25b], the IC50 was 60.9 nM.

The same experiment, now with this note: Homo sapiens; MDA-MB-231 cells, 72 h after adding the drug, Table 2; read-out: Proliferation inhibition IC50.
Consider `CC[C@@]1(O)C(=O)OCc2c1cc1n(c2=O)Cc2c-1nc1cc(F)c(C)cc1c2[C@H](C)NC(=O)CO` [Example 13], for which the IC50 is 80.2 nM.

These data come from patent publication US20240376120A1, “CAMPTOTHECIN COMPOUND, PREPARATION METHOD THEREFOR AND USE THEREOF” (priority 2021, published 2024).
